Test results taken from paper PMC12670405, “Second-Generation AURKA-Targeting PROTACs: Structural Optimization toward in Vivo Degradation in Neuroblastoma” (Journal of Medicinal Chemistry, 2025).

Key:
Assay in all cases: KINOMEscan scanMAX
Format in all cases: binding
Conditions in all cases: read-out: Percent Control
[1] = target: T1, BMX (Homo sapiens, UniProt P51813)
T1 construct: purchased Eurofins Discovery (DiscoverX KINOMEscan scanMAX)
Method: (§1) The kinome-wide binding assay was performed by Eurofins Discovery using the scanMAX screening platform. More information can be found on the Eurofins Discovery Web site.

[2] = target: T2, RIOK3 (Homo sapiens, UniProt O14730)
T2 construct: purchased Eurofins Discovery (DiscoverX KINOMEscan scanMAX)
Method: as §1

[3] = target: T3, MEK3 (Homo sapiens, UniProt P46734)
T3 construct: purchased Eurofins Discovery (DiscoverX KINOMEscan scanMAX)
Method: as §1

[4] = target: T4, HIPK1 (Homo sapiens, UniProt Q86Z02)
T4 construct: purchased Eurofins Discovery (DiscoverX KINOMEscan scanMAX)
Method: as §1

[5] = target: T5, EGFR(L858R) (Homo sapiens, UniProt P00533, L858R)
T5 construct: purchased Eurofins Discovery (DiscoverX KINOMEscan scanMAX)
Method: as §1

[6] = target: T6, MEK6 (Homo sapiens, UniProt P52564)
T6 construct: purchased Eurofins Discovery (DiscoverX KINOMEscan scanMAX)
Method: as §1

[7] = target: T7, ULK2 (Homo sapiens, UniProt Q8IYT8)
T7 construct: purchased Eurofins Discovery (DiscoverX KINOMEscan scanMAX)
Method: as §1

[8] = target: T8, ABL1(F317I)-phosphorylated (Homo sapiens, UniProt P00519, F317I)
T8 construct: purchased Eurofins Discovery (DiscoverX KINOMEscan scanMAX)
Method: as §1

[9] = target: T9, ALK(L1196M) (Homo sapiens, UniProt Q9UM73, L1196M)
T9 construct: purchased Eurofins Discovery (DiscoverX KINOMEscan scanMAX)
Method: as §1

[10] = target: T10, CLK1 (Homo sapiens, UniProt P49759)
T10 construct: purchased Eurofins Discovery (DiscoverX KINOMEscan scanMAX)
Method: as §1

[11] = target: T11, PIK3CA(H1047Y) (Homo sapiens, UniProt P42336, H1047Y)
T11 construct: purchased Eurofins Discovery (DiscoverX KINOMEscan scanMAX)
Method: as §1

[12] = target: T12, CHEK2 (Homo sapiens, UniProt O96017)
T12 construct: purchased Eurofins Discovery (DiscoverX KINOMEscan scanMAX)
Method: as §1

[13] = target: T13, PAK4 (Homo sapiens, UniProt O96013)
T13 construct: purchased Eurofins Discovery (DiscoverX KINOMEscan scanMAX)
Method: as §1

[14] = target: T14, TXK (Homo sapiens, UniProt P42681)
T14 construct: purchased Eurofins Discovery (DiscoverX KINOMEscan scanMAX)
T14 sequence (P42681 whole entry): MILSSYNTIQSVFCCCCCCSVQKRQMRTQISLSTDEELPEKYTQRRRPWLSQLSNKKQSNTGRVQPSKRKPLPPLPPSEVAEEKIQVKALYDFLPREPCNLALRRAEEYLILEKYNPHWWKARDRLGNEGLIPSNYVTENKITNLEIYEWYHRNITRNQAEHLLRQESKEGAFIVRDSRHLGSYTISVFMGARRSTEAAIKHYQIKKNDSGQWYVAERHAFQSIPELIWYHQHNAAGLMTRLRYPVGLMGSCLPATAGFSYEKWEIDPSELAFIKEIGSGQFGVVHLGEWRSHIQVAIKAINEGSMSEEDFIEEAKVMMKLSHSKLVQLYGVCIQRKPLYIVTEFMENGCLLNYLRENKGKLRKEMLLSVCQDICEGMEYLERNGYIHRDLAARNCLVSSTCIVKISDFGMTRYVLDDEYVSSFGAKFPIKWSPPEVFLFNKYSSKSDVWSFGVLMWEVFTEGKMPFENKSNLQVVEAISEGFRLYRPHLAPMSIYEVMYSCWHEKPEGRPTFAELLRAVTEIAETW
Method: as §1

[15] = target: T15, PKAC-beta (Homo sapiens, UniProt P22694)
T15 construct: purchased Eurofins Discovery (DiscoverX KINOMEscan scanMAX)
Method: as §1

[16] = target: T16, PIK3CA(M1043I) (Homo sapiens, UniProt P42336, M1043I)
T16 construct: purchased Eurofins Discovery (DiscoverX KINOMEscan scanMAX)
Method: as §1

[17] = target: T17, RIPK4 (Homo sapiens, UniProt P57078)
T17 construct: purchased Eurofins Discovery (DiscoverX KINOMEscan scanMAX)
Method: as §1

[18] = target: T18, TAK1 (Homo sapiens, UniProt O43318)
T18 construct: purchased Eurofins Discovery (DiscoverX KINOMEscan scanMAX)
T18 sequence (O43318 whole entry): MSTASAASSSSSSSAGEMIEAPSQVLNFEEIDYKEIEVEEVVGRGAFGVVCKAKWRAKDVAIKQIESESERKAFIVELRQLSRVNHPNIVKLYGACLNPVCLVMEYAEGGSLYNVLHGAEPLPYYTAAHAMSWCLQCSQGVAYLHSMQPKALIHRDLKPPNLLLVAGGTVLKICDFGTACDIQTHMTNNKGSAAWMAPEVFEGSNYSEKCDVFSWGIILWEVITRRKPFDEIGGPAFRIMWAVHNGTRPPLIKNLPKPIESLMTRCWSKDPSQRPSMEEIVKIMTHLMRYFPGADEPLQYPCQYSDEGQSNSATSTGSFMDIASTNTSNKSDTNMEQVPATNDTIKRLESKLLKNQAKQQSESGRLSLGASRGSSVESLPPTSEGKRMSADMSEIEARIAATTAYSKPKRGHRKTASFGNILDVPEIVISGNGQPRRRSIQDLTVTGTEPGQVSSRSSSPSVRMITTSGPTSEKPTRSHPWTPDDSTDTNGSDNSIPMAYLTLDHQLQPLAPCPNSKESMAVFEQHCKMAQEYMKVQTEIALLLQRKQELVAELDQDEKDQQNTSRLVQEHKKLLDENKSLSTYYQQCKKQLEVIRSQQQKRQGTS
Method: as §1

[19] = target: T19, MYLK (Homo sapiens, UniProt Q15746)
T19 construct: purchased Eurofins Discovery (DiscoverX KINOMEscan scanMAX)
T19 sequence (Q15746 whole entry): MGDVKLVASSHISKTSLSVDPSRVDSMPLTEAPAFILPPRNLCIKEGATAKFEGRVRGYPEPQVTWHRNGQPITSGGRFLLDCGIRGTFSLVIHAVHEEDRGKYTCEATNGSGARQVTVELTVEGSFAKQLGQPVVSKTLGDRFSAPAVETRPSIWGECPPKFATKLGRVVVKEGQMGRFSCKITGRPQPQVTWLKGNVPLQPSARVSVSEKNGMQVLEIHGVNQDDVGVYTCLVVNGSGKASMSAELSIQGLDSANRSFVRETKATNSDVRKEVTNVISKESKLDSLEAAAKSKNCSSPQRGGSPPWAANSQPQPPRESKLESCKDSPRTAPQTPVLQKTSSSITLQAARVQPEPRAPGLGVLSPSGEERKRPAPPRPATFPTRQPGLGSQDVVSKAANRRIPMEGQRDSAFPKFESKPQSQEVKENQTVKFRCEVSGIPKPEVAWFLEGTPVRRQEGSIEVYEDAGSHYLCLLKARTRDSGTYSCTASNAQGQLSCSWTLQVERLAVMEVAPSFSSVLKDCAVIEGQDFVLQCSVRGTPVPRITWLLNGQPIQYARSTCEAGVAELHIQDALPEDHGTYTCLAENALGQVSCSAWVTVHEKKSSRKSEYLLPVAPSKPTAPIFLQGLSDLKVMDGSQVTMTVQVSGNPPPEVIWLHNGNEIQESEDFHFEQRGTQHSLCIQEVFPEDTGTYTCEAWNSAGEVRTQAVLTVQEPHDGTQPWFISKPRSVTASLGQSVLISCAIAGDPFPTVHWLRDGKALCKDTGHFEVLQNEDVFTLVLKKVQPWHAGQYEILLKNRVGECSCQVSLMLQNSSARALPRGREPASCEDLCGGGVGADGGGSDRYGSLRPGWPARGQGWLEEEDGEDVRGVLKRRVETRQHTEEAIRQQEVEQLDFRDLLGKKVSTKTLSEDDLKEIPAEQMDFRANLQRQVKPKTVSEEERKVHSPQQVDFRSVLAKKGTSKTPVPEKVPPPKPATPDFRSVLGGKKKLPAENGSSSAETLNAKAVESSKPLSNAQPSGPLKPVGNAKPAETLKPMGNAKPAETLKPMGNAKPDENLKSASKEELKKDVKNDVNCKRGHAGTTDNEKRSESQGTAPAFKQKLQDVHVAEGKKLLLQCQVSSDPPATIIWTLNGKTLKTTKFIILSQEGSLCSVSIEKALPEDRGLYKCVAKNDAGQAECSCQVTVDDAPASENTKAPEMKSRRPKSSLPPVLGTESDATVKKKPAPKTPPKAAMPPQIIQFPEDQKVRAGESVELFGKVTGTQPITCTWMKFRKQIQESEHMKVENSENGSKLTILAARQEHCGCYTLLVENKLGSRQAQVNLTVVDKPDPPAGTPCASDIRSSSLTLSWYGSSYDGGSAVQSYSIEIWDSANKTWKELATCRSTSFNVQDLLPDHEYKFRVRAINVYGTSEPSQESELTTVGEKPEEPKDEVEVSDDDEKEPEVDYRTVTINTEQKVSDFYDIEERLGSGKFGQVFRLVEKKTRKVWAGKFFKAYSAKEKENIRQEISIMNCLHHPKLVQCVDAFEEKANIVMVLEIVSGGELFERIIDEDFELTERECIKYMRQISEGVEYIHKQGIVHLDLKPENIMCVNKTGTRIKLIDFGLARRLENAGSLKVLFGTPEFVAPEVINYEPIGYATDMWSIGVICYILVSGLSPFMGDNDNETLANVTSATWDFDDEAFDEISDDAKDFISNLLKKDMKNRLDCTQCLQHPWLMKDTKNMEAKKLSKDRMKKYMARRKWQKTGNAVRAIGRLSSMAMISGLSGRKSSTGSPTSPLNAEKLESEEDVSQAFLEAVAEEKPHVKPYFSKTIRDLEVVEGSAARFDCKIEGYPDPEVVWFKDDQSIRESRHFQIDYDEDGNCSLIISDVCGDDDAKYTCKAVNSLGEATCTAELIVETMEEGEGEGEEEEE
Method: as §1

[20] = target: T20, JAK2(JH1domain-catalytic) (Homo sapiens, UniProt O60674)
T20 construct: JAK2(JH1domain-catalytic); purchased Eurofins Discovery (DiscoverX KINOMEscan scanMAX)
T20 sequence (O60674 840-1132 limits assumed): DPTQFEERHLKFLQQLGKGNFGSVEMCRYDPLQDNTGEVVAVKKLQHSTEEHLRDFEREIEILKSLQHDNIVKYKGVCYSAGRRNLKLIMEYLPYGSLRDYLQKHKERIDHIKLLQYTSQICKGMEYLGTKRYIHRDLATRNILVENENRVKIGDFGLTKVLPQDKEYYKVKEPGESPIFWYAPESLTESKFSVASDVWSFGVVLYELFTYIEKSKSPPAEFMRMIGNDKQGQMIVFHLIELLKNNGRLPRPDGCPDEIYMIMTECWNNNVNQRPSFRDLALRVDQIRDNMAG
Method: as §1

[21] = target: T21, PIM1 (Homo sapiens, UniProt P11309)
T21 construct: purchased Eurofins Discovery (DiscoverX KINOMEscan scanMAX)
T21 sequence (P11309 whole entry): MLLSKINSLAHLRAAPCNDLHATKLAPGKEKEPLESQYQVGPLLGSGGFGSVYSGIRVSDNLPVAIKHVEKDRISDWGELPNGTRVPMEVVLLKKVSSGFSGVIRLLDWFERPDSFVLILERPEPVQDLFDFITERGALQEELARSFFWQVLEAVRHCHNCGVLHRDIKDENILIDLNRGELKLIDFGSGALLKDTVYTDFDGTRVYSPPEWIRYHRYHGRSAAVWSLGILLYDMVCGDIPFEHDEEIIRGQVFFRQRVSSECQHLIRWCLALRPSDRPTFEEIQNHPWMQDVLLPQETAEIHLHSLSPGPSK
Method: as §1

[22] = target: T22, PKAC-alpha (Homo sapiens, UniProt P17612)
T22 construct: purchased Eurofins Discovery (DiscoverX KINOMEscan scanMAX)
Method: as §1

[23] = target: T23, TRKB (Homo sapiens, UniProt Q16620)
T23 construct: purchased Eurofins Discovery (DiscoverX KINOMEscan scanMAX)
Method: as §1

[24] = target: T24, SRPK3 (Homo sapiens, UniProt Q9UPE1)
T24 construct: purchased Eurofins Discovery (DiscoverX KINOMEscan scanMAX)
Method: as §1

[25] = target: T25, JAK1(JH1domain-catalytic) (Homo sapiens, UniProt P23458)
T25 construct: JAK1(JH1domain-catalytic); purchased Eurofins Discovery (DiscoverX KINOMEscan scanMAX)
Method: as §1

[26] = target: T26, EPHA1 (Homo sapiens, UniProt P21709)
T26 construct: purchased Eurofins Discovery (DiscoverX KINOMEscan scanMAX)
Method: as §1

[27] = target: T27, NEK10 (Homo sapiens, UniProt Q6ZWH5)
T27 construct: purchased Eurofins Discovery (DiscoverX KINOMEscan scanMAX)
Method: as §1

[28] = target: T28, FLT1 (Homo sapiens, UniProt P17948)
T28 construct: purchased Eurofins Discovery (DiscoverX KINOMEscan scanMAX)
T28 sequence (P17948 27-1338): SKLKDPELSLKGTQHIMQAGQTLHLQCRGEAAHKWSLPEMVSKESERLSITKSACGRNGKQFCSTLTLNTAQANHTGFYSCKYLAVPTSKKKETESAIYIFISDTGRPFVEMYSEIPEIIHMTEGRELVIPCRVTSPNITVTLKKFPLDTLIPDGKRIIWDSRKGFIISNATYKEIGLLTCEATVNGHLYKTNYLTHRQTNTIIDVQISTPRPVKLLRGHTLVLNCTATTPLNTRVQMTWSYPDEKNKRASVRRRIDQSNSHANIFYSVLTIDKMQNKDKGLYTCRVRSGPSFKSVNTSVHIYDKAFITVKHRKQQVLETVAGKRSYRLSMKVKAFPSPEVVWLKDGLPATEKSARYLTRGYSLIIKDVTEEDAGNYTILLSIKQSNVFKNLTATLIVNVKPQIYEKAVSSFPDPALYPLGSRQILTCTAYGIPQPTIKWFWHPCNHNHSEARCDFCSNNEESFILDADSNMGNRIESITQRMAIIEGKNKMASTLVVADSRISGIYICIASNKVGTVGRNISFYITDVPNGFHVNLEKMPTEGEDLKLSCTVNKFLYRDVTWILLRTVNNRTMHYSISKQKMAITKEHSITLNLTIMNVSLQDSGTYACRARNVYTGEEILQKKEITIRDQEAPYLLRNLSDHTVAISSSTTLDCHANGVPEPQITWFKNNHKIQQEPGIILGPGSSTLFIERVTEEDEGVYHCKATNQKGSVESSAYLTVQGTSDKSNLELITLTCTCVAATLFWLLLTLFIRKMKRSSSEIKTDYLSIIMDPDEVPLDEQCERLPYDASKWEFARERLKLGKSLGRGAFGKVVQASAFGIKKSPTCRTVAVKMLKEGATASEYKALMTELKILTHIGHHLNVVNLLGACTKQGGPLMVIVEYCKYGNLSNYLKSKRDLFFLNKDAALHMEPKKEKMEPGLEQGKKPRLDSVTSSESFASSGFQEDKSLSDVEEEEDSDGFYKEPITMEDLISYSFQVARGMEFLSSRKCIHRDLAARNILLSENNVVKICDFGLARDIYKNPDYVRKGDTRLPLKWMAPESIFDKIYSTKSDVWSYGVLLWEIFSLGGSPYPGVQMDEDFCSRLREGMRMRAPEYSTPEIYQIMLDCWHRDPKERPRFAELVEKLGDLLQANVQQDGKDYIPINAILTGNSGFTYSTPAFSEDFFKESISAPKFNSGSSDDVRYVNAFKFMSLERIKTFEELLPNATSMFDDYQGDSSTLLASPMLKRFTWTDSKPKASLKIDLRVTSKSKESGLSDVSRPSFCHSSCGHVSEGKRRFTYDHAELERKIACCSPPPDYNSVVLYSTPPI
Method: as §1

[29] = target: T29, FLT3-autoinhibited (Homo sapiens, UniProt P36888)
T29 construct: purchased Eurofins Discovery (DiscoverX KINOMEscan scanMAX)
Method: as §1

[30] = target: T30, PDPK1 (Homo sapiens, UniProt O15530)
T30 construct: purchased Eurofins Discovery (DiscoverX KINOMEscan scanMAX)
Method: as §1

[31] = target: T31, MAP4K4 (Homo sapiens, UniProt O95819)
T31 construct: purchased Eurofins Discovery (DiscoverX KINOMEscan scanMAX)
Method: as §1

[32] = target: T32, RSK4(Kin.Dom.2-C-terminal) (Homo sapiens, UniProt Q9UK32)
T32 construct: RSK4(Kin.Dom.2-C-terminal); purchased Eurofins Discovery (DiscoverX KINOMEscan scanMAX)
Method: as §1

## Cc1cc(Nc2ccc(F)c(CC3(C(=O)N4CCC(F)(CN5CCN(c6ccc(N7CCC(=O)NC7=O)cn6)CC5)CC4)CCN(Cc4cccc(Cl)c4F)CC3)n2)n[nH]1 [SK5527]
[1]; 100 nM
  remaining binding at 0.1 µM: 100%
[1]; 1000 nM
  remaining binding at 1 µM: 73%
[2]; 100 nM
  remaining binding at 0.1 µM: 96%
[2]; 1000 nM
  remaining binding at 1 µM: 82%
[3]; 100 nM
  remaining binding at 0.1 µM: 100%
[3]; 1000 nM
  remaining binding at 1 µM: 82%
[4]; 100 nM
  remaining binding at 0.1 µM: 81%
[4]; 1000 nM
  remaining binding at 1 µM: 92%
[5]; 100 nM
  remaining binding at 0.1 µM: 97%
[5]; 1000 nM
  remaining binding at 1 µM: 83%
[6]; 100 nM
  remaining binding at 0.1 µM: 100%
[6]; 1000 nM
  remaining binding at 1 µM: 94%
[7]; 100 nM
  remaining binding at 0.1 µM: 89%
[7]; 1000 nM
  remaining binding at 1 µM: 78%
[8]; 100 nM
  remaining binding at 0.1 µM: 95%
[8]; 1000 nM
  remaining binding at 1 µM: 69%
[9]; 100 nM
  remaining binding at 0.1 µM: 91%
[9]; 1000 nM
  remaining binding at 1 µM: 100%
[10]; 100 nM
  remaining binding at 0.1 µM: 92%
[10]; 1000 nM
  remaining binding at 1 µM: 77%
[11]; 100 nM
  remaining binding at 0.1 µM: 95%
[11]; 1000 nM
  remaining binding at 1 µM: 100%
[12]; 100 nM
  remaining binding at 0.1 µM: 97%
[12]; 1000 nM
  remaining binding at 1 µM: 89%
[13]; 100 nM
  remaining binding at 0.1 µM: 100%
[13]; 1000 nM
  remaining binding at 1 µM: 81%
[14]; 100 nM
  remaining binding at 0.1 µM: 75%
[14]; 1000 nM
  remaining binding at 1 µM: 78%
[15]; 100 nM
  remaining binding at 0.1 µM: 90%
[15]; 1000 nM
  remaining binding at 1 µM: 100%
[16]; 100 nM
  remaining binding at 0.1 µM: 100%
[16]; 1000 nM
  remaining binding at 1 µM: 100%
[17]; 100 nM
  remaining binding at 0.1 µM: 67%
[17]; 1000 nM
  remaining binding at 1 µM: 46%
[18]; 100 nM
  remaining binding at 0.1 µM: 74%
[18]; 1000 nM
  remaining binding at 1 µM: 100%
[19]; 100 nM
  remaining binding at 0.1 µM: 76%
[19]; 1000 nM
  remaining binding at 1 µM: 47%
[20]; 100 nM
  remaining binding at 0.1 µM: 91%
[20]; 1000 nM
  remaining binding at 1 µM: 65%
[21]; 100 nM
  remaining binding at 0.1 µM: 100%
[21]; 1000 nM
  remaining binding at 1 µM: 99%
[22]; 100 nM
  remaining binding at 0.1 µM: 83%
[22]; 1000 nM
  remaining binding at 1 µM: 86%
[23]; 100 nM
  remaining binding at 0.1 µM: 95%
[23]; 1000 nM
  remaining binding at 1 µM: 47%
[24]; 100 nM
  remaining binding at 0.1 µM: 100%
[24]; 1000 nM
  remaining binding at 1 µM: 97%
[25]; 100 nM
  remaining binding at 0.1 µM: 82%
[25]; 1000 nM
  remaining binding at 1 µM: 93%
[26]; 100 nM
  remaining binding at 0.1 µM: 67%
[26]; 1000 nM
  remaining binding at 1 µM: 23%
[27]; 100 nM
  remaining binding at 0.1 µM: 100%
[27]; 1000 nM
  remaining binding at 1 µM: 100%
[28]; 100 nM
  remaining binding at 0.1 µM: 91%
[28]; 1000 nM
  remaining binding at 1 µM: 86%
[29]; 100 nM
  remaining binding at 0.1 µM: 96%
[29]; 1000 nM
  remaining binding at 1 µM: 68%
[30]; 100 nM
  remaining binding at 0.1 µM: 89%
[30]; 1000 nM
  remaining binding at 1 µM: 100%
[31]; 100 nM
  remaining binding at 0.1 µM: 86%
[31]; 1000 nM
  remaining binding at 1 µM: 73%
[32]; 100 nM
  remaining binding at 0.1 µM: 75%
[32]; 1000 nM
  remaining binding at 1 µM: 80%
